Test results as given in paper PMC10514301 (Signal Transduction and Targeted Therapy, 2023).

Assays:
[1] = test system: SARS-CoV-2 Delta variant; test: Antiviral activity against SARS-CoV-2 Delta in Vero E6 cells (viral RNA copies, qRT-PCR); assay type: cell-based
[2] = test system: SARS-CoV-2 Omicron BA.1 variant; test: Antiviral activity against SARS-CoV-2 Omicron BA.1 in Vero E6 cells (qRT-PCR); assay type: cell-based
[3] = test system: SARS-CoV-2 Omicron BA.5 variant; test: Antiviral activity against SARS-CoV-2 Omicron BA.5 in Vero E6 cells (qRT-PCR); assay type: cell-based
[4] = test system: SARS-CoV-2 Delta variant; test: Antiviral activity against SARS-CoV-2 Delta in HEK293T-hACE2-TMPRSS2 cells (qRT-PCR); assay type: cell-based; conditions: Severe acute respiratory syndrome coronavirus 2, 24 h; read-out: EC50 mean ± sd, HEK293T-ACE2-T2, Delta
[5] = test system: SARS-CoV-2 Omicron BA.1 variant; test: Antiviral activity against SARS-CoV-2 Omicron BA.1 in HEK293T-hACE2-TMPRSS2 cells (qRT-PCR); assay type: cell-based; conditions: Severe acute respiratory syndrome coronavirus 2, 24 h; read-out: EC50 mean ± sd, HEK293T-ACE2-T2, Omicron BA.1
[6] = test system: SARS-CoV-2 Omicron BA.5 variant; test: Antiviral activity against SARS-CoV-2 Omicron BA.5 in HEK293T-hACE2-TMPRSS2 cells (qRT-PCR); assay type: cell-based; conditions: Severe acute respiratory syndrome coronavirus 2, 24 h; read-out: EC50 mean ± sd, HEK293T-ACE2-T2, Omicron BA.5
[7] = test system: SARS-CoV-2 Delta variant; assay type: in vivo, K18-hACE2 mice
[8] = test system: SARS-CoV-2 variants (Delta, Omicron BA.1, and Omicron BA.5), HCoV-OC43, and HCoV-229E; test: organism not typed; assay type: cell-based; conditions: read-out: half-maximal effective concentrations (EC50), range over HCoVs and cell lines
[9] = Severe acute respiratory syndrome coronavirus 2, Vero C1008, 24 h, read-out: EC50 mean ± sd, Vero E6, Delta
[10] = Severe acute respiratory syndrome coronavirus 2, Vero C1008, 24 h, read-out: EC50 mean ± sd, Vero E6, Omicron BA.1
[11] = Severe acute respiratory syndrome coronavirus 2, Vero C1008, 24 h, read-out: EC50 mean ± sd, Vero E6, Omicron BA.5

Row | SMILES | EC50 [1, 9] [µM] | EC50 [2, 10] [µM] | EC50 [3, 11] [µM] | EC50 [4] [µM] | EC50 [5] [µM] | EC50 [6] [µM] | expression of IL-6 and CCL2 in the lungs ([7]; initial days (day 2)) | reduction of lung viral loads compared to the vehicle group ([7]; oral BID, […], VV116 50 and 100 mpk, nirmatrelvir 100 mpk with ritonavir 50 mpk, Combo = VV116 50 + nirmatrelvir 100 + ritonavir 50 mpk) | EC50 ([1]; Severe acute respiratory syndrome coronavirus 2, Vero C1008, Vero E6 cells, read-out: EC50 against the SARS-CoV-2 Delta variant in Vero E6 cells) [µM] | EC50 ([2]; Severe acute respiratory syndrome coronavirus 2, Vero C1008, Vero E6 cells, read-out: EC50 against the SARS-CoV-2 Omicron BA.1 variant in Vero E6 cells) [µM] | EC50 ([3]; Severe acute respiratory syndrome coronavirus 2, Vero C1008, Vero E6 cells, read-out: EC50 against Omicron BA.5) [µM] | EC50 [8] [µM]
1 | N#C[C@@]1(c2ccc3c(N)ncnn23)O[C@H](CO)[C@@H](O)[C@H]1O [GS-441524] | 0.61 ± 0.079 | 0.28 ± 0.011 | 0.1 ± 0.011 | 0.25 ± 0.14 | 0.38 ± 0.04 | 0.75 ± 0.064 | – | – | – | – | – | –
2 | CC(C)(C)[C@H](NC(=O)C(F)(F)F)C(=O)N1C[C@H]2[C@@H]([C@H]1C(=O)N[C@H](C#N)C[C@@H]1CCNC1=O)C2(C)C [Nirmatrelvir, nirmatrelvir] | – | – | – | – | – | – | reduction | 1–2 log | – | – | – | –
3 | CCC(CC)COC(=O)[C@H](C)N[P@](=O)(OC[C@H]1O[C@@](C#N)(c2ccc3c(N)ncnn23)[C@H](O)[C@@H]1O)Oc1ccccc1 [RDV, remdesivir] | – | – | – | – | – | – | – | – | 2.2 | 0.54 | 0.13 | –
4 | [2H]c1cc([C@]2(C#N)O[C@H](CO)[C@@H](O)[C@H]2O)n2ncnc(N)c12 [X1] | 0.83 ± 0.071 | 0.3 ± 0.027 | 0.46 ± 0.004 | 0.15 ± 0.037 | 0.72 ± 0.024 | 0.45 ± 0.1 | – | – | – | – | – | 0.06 to 1.1
